Test results published in PubChem BioAssay AID256 (DTP/NCI, 2004).
Values joined by “and” are separate entries in the source; they are usually repeats but may differ in a detail not shown here. Equal entries are not always repeated. Toxic doses and inconclusive results are not listed.

Test system: CD2F1 mice, L1210 leukemia ip, survival T/C
Test: NCI In Vivo Anticancer Drug Screen. Data for tumor model L1210 Leukemia (intraperitoneal) in CD2F1 (CDF1) mice
Details: higher = longer survival
Procedure, shortened: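 Vehicle-treated tumor-bearing mice served as controls (C) for compound-treated mice (T). Reported figure is T divided by C.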

[1] = endpoint: mean survival time, dose: 100.0 mg/kg/injection, schedule: Q01DX001 (ip), vehicle: saline with Tween-80
[2] = endpoint: mean survival time, dose: 200.0 mg/kg/injection, schedule: Q01DX001 (ip), vehicle: saline with Tween-80
[3] = endpoint: mean survival time, dose: 400.0 mg/kg/injection, schedule: Q01DX001 (ip), vehicle: saline with Tween-80
[4] = endpoint: mean survival time, dose: 50.0 mg/kg/injection, schedule: Q01DX009 (ip), vehicle: saline with Tween-80
[5] = endpoint: mean survival time, dose: 100.0 mg/kg/injection, schedule: Q01DX009 (ip), vehicle: saline
[6] = endpoint: mean survival time, dose: 200.0 mg/kg/injection, schedule: Q01DX009 (ip), vehicle: saline
[7] = endpoint: mean survival time, dose: 400.0 mg/kg/injection, schedule: Q01DX009 (ip), vehicle: saline
[8] = endpoint: mean survival time, dose: 100.0 mg/kg/injection, schedule: Q01DX009 (ip), vehicle: saline with Tween-80
[9] = endpoint: mean survival time, dose: 100.0 mg/kg/injection, schedule: Q04DX003 (ip), vehicle: saline with Tween-80
[10] = endpoint: mean survival time, dose: 200.0 mg/kg/injection, schedule: Q01DX009 (ip), vehicle: saline with Tween-80
[11] = endpoint: mean survival time, dose: 200.0 mg/kg/injection, schedule: Q04DX003 (ip), vehicle: saline with Tween-80
[12] = endpoint: mean survival time, dose: 400.0 mg/kg/injection, schedule: Q01DX009 (ip), vehicle: saline with Tween-80
[13] = endpoint: mean survival time, dose: 400.0 mg/kg/injection, schedule: Q04DX003 (ip), vehicle: saline with Tween-80
[14] = endpoint: mean survival time, dose: 50.0 mg/kg/injection, schedule: Q01DX001 (ip), vehicle: saline with Tween-80
[15] = endpoint: median survival time, dose: 3.12 mg/kg/injection, schedule: Q04DX003 (ip), vehicle: saline
[16] = endpoint: median survival time, dose: 6.25 mg/kg/injection, schedule: Q04DX003 (ip), vehicle: saline
[17] = endpoint: median survival time, dose: 12.5 mg/kg/injection, schedule: Q04DX003 (ip), vehicle: saline
[18] = endpoint: median survival time, dose: 50.0 mg/kg/injection, schedule: Q04DX003 (ip), vehicle: saline

CO[C@@]12[C@@H]3N[C@@H]3CN1C1=C(C(=O)C(NCCN)=C(C)C1=O)[C@@H]2COC(N)=O
T/C (endpoint: median survival time, dose: 0.75 mg/kg/injection, schedule: Q01DX001 (ip), vehicle: water): 123 % of control and 110 % of control
T/C (endpoint: median survival time, dose: 1.5 mg/kg/injection, schedule: Q01DX001 (ip), vehicle: water): 111 % of control
T/C (endpoint: median survival time, dose: 6.0 mg/kg/injection, schedule: Q01DX001 (ip), vehicle: water): 94 % of control

CN(CCS(=O)(=O)O)/N=C/c1ccc2c(c1)OCO2
T/C (endpoint: mean survival time, dose: 25.0 mg/kg/injection, schedule: Q04DX003 (ip), vehicle: acetone): 97 % of control
T/C (endpoint: mean survival time, dose: 50.0 mg/kg/injection, schedule: Q04DX003 (ip), vehicle: acetone): 103 % of control
T/C (endpoint: mean survival time, dose: 100.0 mg/kg/injection, schedule: Q04DX003 (ip), vehicle: acetone): 98 % of control

N#Cc1cn(C2OC(CO)C3OC32)c2ncnc(NC(=O)c3ccccc3)c12 (stereo unspecified)
T/C (endpoint: mean survival time, dose: 25.0 mg/kg/injection, schedule: Q01DX005 (ip), vehicle: distilled water + Tween-80): 103 % of control
T/C (endpoint: mean survival time, dose: 50.0 mg/kg/injection, schedule: Q01DX005 (ip), vehicle: distilled water + Tween-80): 104 % of control
T/C (endpoint: mean survival time, dose: 100.0 mg/kg/injection, schedule: Q01DX005 (ip), vehicle: distilled water + Tween-80): 114 % of control
T/C (endpoint: mean survival time, dose: 200.0 mg/kg/injection, schedule: Q01DX005 (ip), vehicle: distilled water + Tween-80): 110 % of control

Nc1cccc(CC(=O)Nc2cccc(S(=O)(=O)F)c2)c1
T/C [1]: 96 % of control
T/C [2]: 95 % of control
T/C [3]: 90 % of control

CC(=O)OCC#CCOC(C)=O
T/C [4]: 93 % of control

Nc1nc(N)c2c(n1)CN(c1ccc(Cl)cc1)C2
T/C (endpoint: mean survival time, dose: 75.0 mg/kg/injection, schedule: Q01DX001 (ip), vehicle: saline): 104 % of control
T/C (endpoint: mean survival time, dose: 150.0 mg/kg/injection, schedule: Q01DX001 (ip), vehicle: saline): 96 % of control
T/C (endpoint: mean survival time, dose: 300.0 mg/kg/injection, schedule: Q01DX001 (ip), vehicle: saline): 98 % of control

C/C=C/c1cnc(N)nc1-c1ccc(OC)cc1
T/C [1]: 97 % of control
T/C [2]: 94 % of control
T/C [3]: 97 % of control

COC1CC2C[CH]([Hg][Cl])C1C2 (stereo unspecified)
T/C (endpoint: mean survival time, dose: 0.75 mg/kg/injection, schedule: Q01DX009 (ip), vehicle: saline): 106 % of control
T/C (endpoint: mean survival time, dose: 1.5 mg/kg/injection, schedule: Q01DX009 (ip), vehicle: saline): 106 % of control
T/C (endpoint: mean survival time, dose: 3.0 mg/kg/injection, schedule: Q01DX009 (ip), vehicle: saline): 103 % of control
T/C (endpoint: mean survival time, dose: 3.13 mg/kg/injection, schedule: Q01DX009 (ip), vehicle: saline with Tween-80): 97 % of control
T/C (endpoint: mean survival time, dose: 6.25 mg/kg/injection, schedule: Q01DX009 (ip), vehicle: saline with Tween-80): 103 % of control

NC(N)=NNC(=O)C(=O)O
T/C [5]: 98 % of control
T/C [6]: 110 % of control
T/C [7]: 100 % of control

CCOC(=O)CC1c2nc3ccccc3cc2CN1C(=O)CCOC(C)=O (stereo unspecified)
T/C [8]: 95 % of control
T/C [9]: 104 % of control
T/C [10]: 92 % of control
T/C [11]: 100 % of control
T/C [12]: 97 % of control
T/C [13]: 97 % of control

CCC(=O)c1ccccc1NC(C)=O
T/C [11]: 95 % of control
T/C [13]: 97 % of control

CNC(=O)Nc1nnnc2ccccc12
T/C [9]: 95 % of control

CCCCOC(=O)c1ccc(OC(=O)Nc2ccc(C)cc2[N+](=O)[O-])cc1
T/C (endpoint: mean survival time, dose: 25.0 mg/kg/injection, schedule: Q01DX009 (ip), vehicle: saline + alcohol): 102 % of control
T/C [14]: 109 % of control
T/C (endpoint: mean survival time, dose: 50.0 mg/kg/injection, schedule: Q01DX009 (ip), vehicle: saline + alcohol): 108 % of control
T/C [1]: 113 % of control
T/C (endpoint: mean survival time, dose: 100.0 mg/kg/injection, schedule: Q01DX009 (ip), vehicle: saline + alcohol): 103 % of control
T/C [2]: 109 % of control
T/C (endpoint: mean survival time, dose: 200.0 mg/kg/injection, schedule: Q01DX009 (ip), vehicle: saline + alcohol): 101 % of control
T/C [3]: 107 % of control

O=C(O)Cc1ccccc1C(=O)O.[NH-]C1CCCCC1[NH-].[Pt+2]
T/C [15]: 102 % of control and 108 % of control
T/C [16]: 103 % of control and 108 % of control
T/C [17]: 109 % of control and 110 % of control
T/C (endpoint: median survival time, dose: 25.0 mg/kg/injection, schedule: Q04DX003 (ip), vehicle: saline): 105 % of control and 109 % of control
T/C [18]: 117 % of control and 112 % of control

CC(O)c1ccc2c(c1)N(CCCN1CCN(CCO)CC1)c1ccccc1S2 (stereo unspecified)
T/C (endpoint: mean survival time, dose: 100.0 mg/kg/injection, schedule: Q04DX003 (ip), vehicle: saline): 97 % of control

COc1ccc(C2=N/C(=C\c3ccccc3)C(=O)O2)cc1
T/C [8]: 96 % of control
T/C [9]: 93 % of control
T/C [10]: 90 % of control
T/C [11]: 92 % of control
T/C [12]: 98 % of control
T/C [13]: 89 % of control

COc1ccc(/C=C/C(CC(NO)c2ccc(OC)cc2)=N/O)cc1 (stereo unspecified)
T/C (endpoint: mean survival time, dose: 12.5 mg/kg/injection, schedule: Q04DX003 (ip), vehicle: saline with Tween-80): 101 % of control
T/C (endpoint: mean survival time, dose: 25.0 mg/kg/injection, schedule: Q01DX001 (ip), vehicle: saline with Tween-80): 103 % of control
T/C (endpoint: mean survival time, dose: 25.0 mg/kg/injection, schedule: Q04DX003 (ip), vehicle: saline with Tween-80): 101 % of control
T/C [14]: 104 % of control
T/C (endpoint: mean survival time, dose: 50.0 mg/kg/injection, schedule: Q04DX003 (ip), vehicle: saline with Tween-80): 102 % of control
T/C [9]: 95 % of control
T/C [2]: 97 % of control
T/C [11]: 98 % of control

CCN(CC)c1cccc(O)c1
T/C [4]: 92 % of control
T/C [8]: 98 % of control

O=C1N(C2CCCCC2)CC2C(c3cccnc3)NNC12O (stereo unspecified)
T/C [1]: 97 % of control
T/C [2]: 87 % of control

COC(=O)N1c2ccccc2C23CCN4CCCC5(CCC12C(C(=O)O)C5)C43 (stereo unspecified)
T/C (endpoint: mean survival time, dose: 75.0 mg/kg/injection, schedule: Q01DX001 (ip), vehicle: other): 93 % of control
T/C (endpoint: mean survival time, dose: 150.0 mg/kg/injection, schedule: Q01DX001 (ip), vehicle: other): 101 % of control
T/C (endpoint: mean survival time, dose: 300.0 mg/kg/injection, schedule: Q01DX001 (ip), vehicle: other): 107 % of control

CCOc1ccc2c(c1)c(CC(=O)O)c(C)n2C
T/C (endpoint: mean survival time, dose: 100.0 mg/kg/injection, schedule: Q01DX001 (ip), vehicle: other): 95 % of control
T/C (endpoint: mean survival time, dose: 200.0 mg/kg/injection, schedule: Q01DX001 (ip), vehicle: other): 98 % of control
T/C (endpoint: mean survival time, dose: 400.0 mg/kg/injection, schedule: Q01DX001 (ip), vehicle: other): 98 % of control

Nc1nc2c(ncn2C2OC(COC(=O)Oc3ccccc3)C(O)C2O)c(=O)[nH]1 (stereo unspecified)
T/C (endpoint: mean survival time, dose: 50.0 mg/kg/injection, schedule: Q01DX009 (ip), vehicle: Klucel (hydroxypropylcellulose) (HPC)): 107 % of control
T/C (endpoint: mean survival time, dose: 100.0 mg/kg/injection, schedule: Q01DX009 (ip), vehicle: Klucel (hydroxypropylcellulose) (HPC)): 96 % of control
T/C (endpoint: mean survival time, dose: 200.0 mg/kg/injection, schedule: Q01DX009 (ip), vehicle: Klucel (hydroxypropylcellulose) (HPC)): 92 % of control

CC(C(=O)O)C1(O)CCCCC1 (stereo unspecified)
T/C (endpoint: mean survival time, dose: 5.0 mg/kg/injection, schedule: Q01DX009 (ip), vehicle: saline with Tween-80): 101 % of control
T/C (endpoint: mean survival time, dose: 10.0 mg/kg/injection, schedule: Q01DX009 (ip), vehicle: saline with Tween-80): 95 % of control
T/C (endpoint: mean survival time, dose: 20.0 mg/kg/injection, schedule: Q01DX009 (ip), vehicle: saline with Tween-80): 90 % of control

CS(=O)(=O)OCCN(CCOS(C)(=O)=O)c1cccc(C(F)(F)F)c1
T/C (endpoint: mean survival time, dose: 6.25 mg/kg/injection, schedule: Q01DX015 (ip), vehicle: saline): 113 % of control
T/C (endpoint: mean survival time, dose: 12.5 mg/kg/injection, schedule: Q01DX015 (ip), vehicle: saline): 119 % of control
T/C (endpoint: mean survival time, dose: 25.0 mg/kg/injection, schedule: Q01DX015 (ip), vehicle: saline): 107 % of control
T/C (endpoint: mean survival time, dose: 50.0 mg/kg/injection, schedule: Q01DX015 (ip), vehicle: saline): 98 % of control

Cc1cc(=O)c2c(=O)[nH][nH]c2[nH]1
T/C [8]: 98 % of control
T/C [10]: 104 % of control

C(=C\CN1CCOCC1)/CN1CCOCC1
T/C [5]: 91 % of control
T/C [6]: 97 % of control
T/C [7]: 97 % of control

O=C(O)c1ccc([N+](=O)[O-])cc1C(=O)O.[NH-]C1CCCCC1[NH-].[Pt+2]
T/C [15]: 100 % of control and 110 % of control
T/C [16]: 121 % of control and 110 % of control
T/C [17]: 116 % of control
T/C [18]: 176 % of control
T/C (endpoint: median survival time, dose: 100.0 mg/kg/injection, schedule: Q04DX003 (ip), vehicle: saline): 183 % of control and 282 % of control
T/C (endpoint: median survival time, dose: 200.0 mg/kg/injection, schedule: Q04DX003 (ip), vehicle: saline): 97 % of control
